Patent US11685733B2, “Compounds for treating Rac-GTPase mediated disorder” (Children's Medical Center Corporation, priority 2018, dated 2023)
Entries after “also recorded” stand apart in the source; their conditions may differ.

What was measured:
[1] = system: mononuclear bone marrow cells from WT mice; assay: Colony forming unit assay (CFU assay) for toxicity; format: cell-based
Method: The formulation obtained in Example 2 was used for evaluating the toxicity of Compound 1 in a colony forming unit assay (CFU assay), which was performed by plating mononuclear bone marrow cells from WT mice in methylcellulose media supplemented with different doses of Compound 1, NSC23766, and DMSO. The number of colonies formed in each condition was scored 7 days after plating.

Rac = assay: Pull down assay of Rac activation with Western blot; format: cell-based, human; details: SEM cell line
Method: Further, a biochemical pull down assay using the SEM cell line was performed to confirm specific inhibition of Rac activation by Compound 1 as indicated by disruption of the interaction between Rac and GTPase. The assay initially required treatment of cells followed by pull down and analysis with Western blot. The cells were first starved in serum free media for 2 hours. They were then re-suspended in serum-containing medium. NSC23766 and Compound 1 were added at desired concentrations. Following incubation for the desired length of time, the cells were pelleted and lysed with Magnesium Lysis Buffer (Millipore Mg^2+ lysis/wash buffer).

[2] = Relative weight of mice during the efficacy study; format: in vivo; details: 10 mg/kg and 100 mg/kg, normalized to average weight before treatment
Method: (§1) Bioluminecence imaging (BLI) analysis was performed by treating a mouse model (8 mice) of human leukemia (P12 xenograft) with two different doses of Compound 1 (i.e., 10 and 100 mg/kilogram of body weight) using the formulation obtained in Example 2. P12 cells were transduced with a vector encoding for Luciferase and mCherry as a fluorescent marker. Treatment was started 5 days after inoculation of the cell line, and carried out by oral gavage for 18 days twice a day. Mice were imaged twice a week to obtain a quantification of the disease burden.

SEM cell line = assay: Flow based Annexin V apoptosis and cell death assay; design: species or system human; details: Annexin V kit
Description: Compound 1 was further analyzed for its effect on cell apoptosis and cell death using a flow based assay using Annexin V kit.

P12 xenograft = assay: Anti-leukemia activity in mouse model of human leukemia (bioluminescence imaging, mCherry cells in bone marrow); format: in vivo, mice; details: 10 mg/kg and 100 mg/kg
Method: as §1

[3] = system: SEM, RS4,11, and P12 leukemia cell lines; assay: Inhibition of proliferation in three leukemia cell lines; format: cell-based; details: Homo sapiens; range over SEM, RS4,11 and P12 cell lines
Method: Compound 1 was assayed for inhibition of proliferation in three leukemia cell lines, i.e., (1) SEM, (2) RS4,11, and (3) P12 by […]. The cells for the proliferation assay were spun down and re-suspended. The cell suspension was then divided and Compound 1 was added in desired concentrations and subsequently plated. Following an incubation period, the […] (Promega CellTiter 96® Aqueous Non-Radioactive Cell Proliferation Assay) was added and allowed to incubate. The absorbance is subsequently measured at 490 nm using a plate reader.

[4] = system: P12 cells with NRAS G12D mutation
[5] = system: sensitive leukemic cell lines; assay: Induction of apoptosis in leukemic cell lines

SMILES | concentration up to which no toxicity toward clonogenic progenitor bone marrow cells was seen ([1]; colonies scored 7 days after plating) | concentration without toxicity relative to the IC50 ([1]; fold the IC50) | total Rac levels (Rac) | Rac activation (Rac; pull down) | relative weight of the mice [2] | cell apoptosis and cell death (SEM cell line) | mCherry positive cells in the bone marrow (P12 xenograft; fold change to the vehicle group) | bioluminescence (disease burden) (P12 xenograft; oral gavage twice a day for 18 days) | IC50 [3] | PDE6D/ARL2/3-dependent trafficking of RAS [4] | apoptosis [5]
O=C(CCc1nnc(CCc2c[nH]c3ccccc23)o1)N1CCN(c2ccc(F)cc2)CC1 [Compound 1, 1-[4-(4-fluorophenyl)piperazin-1-yl]-3-{5-[2-(1H-indol-3-yl)ethyl]-1,3,4-oxadiazol-2-yl}propan-1-one] | ~100 µM | > 100 fold | no significant effect on total Rac levels | significant reduction of Rac activation; also recorded: dose dependent reduction of Rac activation | relatively stable over the course of treatment | caused cells apoptosis and cell death in the SEM cell line in a dose-dependent manner | effectively inhibit proliferation | significantly reduced the bioluminescence | 0.8 to 7 µM |  | 
CCc1ccc(CN(C)C(=O)CCc2nnc(CCc3c[nH]c4ccccc34)o2)cc1 [Compound 5] |  |  |  |  |  |  |  |  |  | affected PDE6D/ARL2/3-dependent trafficking of RAS | induced apoptosis
